Measured values taken from patent publication US6995263B2, “Indolyl and dihydroindolyl derivatives, their manufacture and use as pharmaceutical agents” (Hoffmann-La Roche Inc., priority 2003, dated 2006).
pIC50: −log10 of the molar value.

Tests used:
PPARδ = biological target: T1, PPARδ (Homo sapiens, UniProt Q03181); experiment: Radioligand binding assay (SPA), PPARδ receptor binding; conditions: GST-PPARδ-LBD fusion protein, scintillation proximity counting
T1 construct: PPARδ (aa 139 to 442); made in house; host or cells: E. coli BL21(pLysS)
T1 sequence (Q03181 139-441 limits assumed): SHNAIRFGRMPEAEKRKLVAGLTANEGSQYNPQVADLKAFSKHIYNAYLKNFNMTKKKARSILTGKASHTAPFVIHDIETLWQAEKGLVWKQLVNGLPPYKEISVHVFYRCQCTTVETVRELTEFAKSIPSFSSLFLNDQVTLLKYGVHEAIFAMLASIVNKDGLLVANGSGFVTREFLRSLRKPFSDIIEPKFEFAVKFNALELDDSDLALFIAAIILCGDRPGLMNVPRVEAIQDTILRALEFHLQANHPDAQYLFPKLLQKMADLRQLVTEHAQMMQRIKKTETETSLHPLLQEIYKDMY
Description: (§1) Background information on the performed assays can be found in: Nichols J S et al. “Development of a scintillation proximity assay for peroxisome proliferator-activated receptor gamma ligand binding domain”, (1998) Anal. Biochem. 257:112–119.
(§2) Full-length cDNA clones for humans PPARδ and PPARα and mouse PPARγ were obtained by RT-PCR from human adipose and mouse liver cRNA, respectively, cloned into plasmid vectors and verified by DNA sequencing. Bacterial and mammalian expression vectors were constructed to produce glutathione-s-transferase (GST) and Gal4 DNA binding domain proteins fused to the ligand binding domains (LBD) of PPARδ (aa 139 to 442), PPARγ (aa 174 to 476) and PPARα (aa 167 to 469). To accomplish this, the portions of the cloned sequences encoding the LBDs were amplified from the full-length clones by PCR and then subcloned into the plasmid vectors. Final clones were verified by DNA sequence analysis.
(§3) Induction, expression, and purification of GST-LBD fusion proteins were performed in E. coli strain BL21(pLysS) cells by standard methods (Ref: Current Protocols in Molecular Biology, Wiley Press, edited by Ausubel et al.).
PPARδ receptor binding was assayed in HNM10 (50 mM Hepes, pH 7.4, 10 mM NaCl, 5 mM MgCl2, 0.15 mg/ml fatty acid-free BSA and 15 mM DTT). For each 96 well reaction a 500 ng equivalent of GST-PPARδ-LBD fusion protein and radioligand, e.g. 20000 dpm {2-methyl-4-[4-methyl-2-(4-trifluoromethyl-phenyl)-thiazol-5-yl-ditritiomethylsulfanyl]-phenoxy}-acetic acid, was bound to 10 μg SPA beads (PharmaciaAmersham) in a final volume of 50 μl by shaking. The resulting slurry was incubated for 1 h at RT and centrifuged for 2 min at 1300 g. […] Radioligand was added and the reaction incubated at RT for 1 h and scintillation proximity counting performed in the presence of test compounds was determined. All binding assays were performed in 96 well plates and the amount of bound ligand was measured on a Packard TopCount using OptiPlates (Packard). […]

PPARα = biological target: T2, PPARα (Homo sapiens, UniProt Q07869); experiment: Radioligand binding assay (SPA), PPARα receptor binding; conditions: GST-PPARα-LBD fusion protein, scintillation proximity counting
T2 construct: PPARα (aa 167 to 469); made in house; host or cells: E. coli BL21(pLysS)
T2 sequence (Q07869 167-468 limits assumed): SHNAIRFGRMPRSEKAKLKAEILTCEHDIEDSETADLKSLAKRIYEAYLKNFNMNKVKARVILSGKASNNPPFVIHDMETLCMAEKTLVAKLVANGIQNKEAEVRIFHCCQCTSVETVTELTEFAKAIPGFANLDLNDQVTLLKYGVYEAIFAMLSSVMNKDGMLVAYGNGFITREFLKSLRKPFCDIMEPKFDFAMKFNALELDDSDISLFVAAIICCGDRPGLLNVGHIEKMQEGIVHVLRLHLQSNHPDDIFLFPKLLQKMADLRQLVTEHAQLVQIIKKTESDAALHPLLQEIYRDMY
Description: as §1, §2, §3
(§4) PPARα receptor binding was assayed in TKE50 (50 mM Tris-HCl, pH 8, 50 mM KCl, 2 mM EDTA, 0.1 mg/ml fatty acid-free BSA and 10 mM DTT). For each 96 well reaction an 140 ng equivalent of GST-PPARα-LBD fusion protein was bound to 10 μg SPA beads (PharmaciaAmersham) in a final volume of 50 μl by shaking. The resulting slurry was incubated for 1 h at RT and centrifuged for 2 min at 1300 g. The supernatant containing unbound protein was removed and the semidry pellet containing the receptor-coated beads was resolved in 50 μl of TKE. […] All binding assays were performed in 96 well plates and the amount of bound ligand measured on a Packard TopCount using OptiPlates (Packard). Nonspecific binding was determined in the presence of 10^−4 M unlabelled compound. […]

PPARγ = biological target: T3, PPARγ (Mus musculus, UniProt P37238); experiment: Radioligand binding assay (SPA), PPARγ receptor binding; conditions: GST-PPARγ-LBD fusion protein, scintillation proximity counting
T3 construct: PPARγ (aa 174 to 476); made in house; host or cells: E. coli BL21(pLysS)
T3 sequence (P37238 174-475 isoform P37238-2): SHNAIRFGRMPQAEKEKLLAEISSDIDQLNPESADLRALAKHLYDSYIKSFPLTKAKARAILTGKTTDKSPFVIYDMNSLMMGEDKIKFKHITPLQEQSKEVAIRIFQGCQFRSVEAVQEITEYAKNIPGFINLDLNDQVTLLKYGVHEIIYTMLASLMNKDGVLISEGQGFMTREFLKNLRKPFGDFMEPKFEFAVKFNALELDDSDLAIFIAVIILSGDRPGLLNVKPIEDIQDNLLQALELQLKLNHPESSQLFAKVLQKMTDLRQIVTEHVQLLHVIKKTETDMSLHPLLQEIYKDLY
Description: as §1, §2, §3
as §4, with “PPARγ” for “PPARα”, “GST-PPARγ-LBD” for “GST-PPARα-LBD”, “ul” for “μl”

pIC50 (PPARδ)	pIC50 (PPARα)	pIC50 (PPARγ)	SMILES
7.77	5.80	< 5.00	Cc1nc(-c2ccc(C(F)(F)F)cc2)ccc1COc1ccc2c(c1)N(CC(=O)O)CC2 [Example 6, {6-[2-Methyl-6-(4-trifluoromethyl-phenyl)-pyridin-3-ylmethoxy]-2,3-dihydro-indol-1-yl}-acetic acid]
7.08	5.88	< 5.00	Cc1nc(-c2ccc(C(F)(F)F)cc2)ncc1COc1ccc2c(ccn2CC(=O)O)c1 [Example 2, {5-[4-Methyl-2-(4-trifluoromethyl-phenyl)-pyrimidin-5-ylmethoxy]-indol-1-yl}-acetic acid]
9.00	6.68	< 5.00	O=C(O)Cn1ccc2ccc(OCc3cnc(-c4ccc(C(F)(F)F)cc4)nc3C3CC3)cc21 [Example 7, {6-[4-Cyclopropyl-2-(4-trifluoromethyl-phenyl)-pyrimidin-5-ylmethoxy]-indol-1-yl}-acetic acid]
